Experimental data: patent US7314959B2, “Amino thiol compounds and compositions for use in conjunction with cancer therapy” (Wisconsin Alumni Research Foundation, priority 2003, dated 2008)
Entries after “also recorded” stand apart in the source; their conditions may differ.

Experiments:
[1] = tested on: radiation-induced dermatitis on backs of rats; test: Radiation-induced dermatitis in rat skin model; type: in vivo
[2] = tested on: A431 human epidermoid cells (xenograft in nude mice); test: Effect of topical drug on killing of tumor xenograft by external beam γ irradiation; type: in vivo, mouse; details: topical dose 5-times higher than standard regimen, adjacent to xenograft; 6.2 Gy
Method: Briefly, athymic nude mice (nu/nu, 6-7 weeks, Harlan Labs) were housed in cages containing autoclaved bedding and received autoclaved food and water. Cages were maintained in a sterile laminar flow hood. Mice received a single, sc injection of tumor cells (6.5×10^6, A431; 2.5×10^6, L1210) suspended in 200 ul of serum-free DMEM.
After three days, mice were treated with topical drug in vehicle or vehicle alone. PrC-210 was formulated in a 50:30:20 vehicle (ethanol:PG (propylene glycol):water, adjusted to pH 6.5 with NaOH), and mice received four topical applications over two hours (at −2 hr, −1 hr, −30 min and −10 min, irradiation was at 0 min). 18-20 gm nude mice received topical treatments of 13 ul, 11 ul, 11 ul and 11 ul (total=46 ul) applied to a roughly 1 cm×1.5 cm area on the right flank, which was adjacent to the tumor xenograft. For these tumor xenograft experiments, a 5-fold increase in drug concentration over the minimum effective concentration previously shown to prevent radiodermatitis was tested.
With the last topical drug application, at −10 min, the mice also received an ip injection of Nembutal (65 ug/gm b.w.). […]
Growth of the xenograft tumors was monitored by vernier caliper measurements every 1-2 days for the 18-21 days following irradiation. […]

[3] = tested on: B16 melanoma tumor xenografts; test: Effect of topical drug on killing of tumor xenograft by systemic Cytoxan; type: in vivo, mouse; details: topical dose 5-times higher than standard regimen; Cytoxan 200 ug/gm b.w. ip
[4] = tested on: primary, human skin fibroblasts; test: Cell cycle block in human skin fibroblasts (flow cytometry); type: cell-based
Method: (§1) Methods (Cell cycle and p21 western): The cell culture experiments were done using primary, human skin fibroblasts, one strain of which (BJ cells) was obtained from ATCC (American Type Culture Collection). […] For flow cytometry and p21 experiments, cells were plated at 0.5×10^6 cells/150 mm plate, and 24 hr later, drug molecules (4100 μM PrC-210, 600 μM cysteamine, 205 μM cysteamine analog, 0.4 μg/ml colcemid) were added to medium. […] (Cancer Research. 61(21):7754-62, 2001). As per the cited reference, cells were fixed, treated with RNAse, and stained with propidium iodide for flow cytometry, or cells were extracted, proteins electrophoresed, and probed with anti-p21 antibody (#SXM-30) for western blot analysis.

p21 in human fibroblasts = test: p21 western blot in human skin fibroblasts; type: cell-based; details: IC70 concentration of PrC-210 (4100 μM); cysteamine 600 μM; 30 hour exposure
Method: as §1

`CNCC(CS)CNC` [PrC-210, 3-methylamino-2-methylaminomethyl-propane-1-thiol] was tested, and the “dose for complete protection in 0:95:5 vehicle relative to 50:30:20 vehicle” value ([1]; 0:95:5 versus 50:30:20 ethanol:PG:water) was “about 10 times”, the “Dermatitis Score (% of irradiated field free of scab material)” value ([1]; 370 mM, vehicle 0:95:5, Experiment 440-443) was under 50% and the “Dermatitis Score (% of irradiated field free of scab material)” value ([1]; 370 mM, vehicle 50:30:20, Experiment 574-577) was 100 ± 0%. The “Dermatitis Score (% of irradiated field free of scab material)” value ([1]; 370 mM, vehicle 50:30:20, Experiment 643-646) was 98 ± 3%, the “Dermatitis Score (% of irradiated field free of scab material)” value ([1]; 740 mM, vehicle 0:95:5 ethanol:prop. glycol:water, Experiment 440-443) was 68% and the “Dermatitis Score (% of irradiated field free of scab material)” value ([1]; 740 mM, vehicle 50:30:20, Experiment 626-629) was 96 ± 3%. The “Dermatitis Score (% of irradiated field free of scab material)” value ([1]; 740 mM, vehicle 50:30:20, Experiment 643-646) was 96 ± 4%, the “Dermatitis Score (% of irradiated field free of scab material)” value ([1]; 900 mM PrC-210, vehicle 0:95:5, cage 440, 8.7 Gy) was 68 ± 10% and the “Dermatitis Score (% of irradiated field free of scab material)” value ([1]; 1200 mM PrC-210, vehicle 0:95:5, cage 441) was 95 ± 5%. For the same compound, the “concentration conferring complete protection against radiation-induced dermatitis” value ([1]; 95:5 PG:water vehicle) was 1200 to 1500 mM, the “concentration of topical aminothiol alone conferring complete protection against radiodermatitis” value ([1]; aminothiol alone, without epinephrine, 8.7 Gy) was about 1200 mM and the “dose required for complete protection (100% Clear Skin) against radiodermatitis” value ([1]; vehicle 0:95:5 ethanol:PG:water) was about 24 mg/cm skin. For the same compound, the “applied dose conferring complete protection against radiation-induced dermatitis” value ([1]; vehicle 50:30:20 ethanol:PG:water) was 2.8 mg/cm^2 skin, the “concentration conferring complete protection against radiation-induced dermatitis” value ([1]; vehicle 50:30:20 ethanol:PG:water, total applied volume 105 ul) was 370 mM and the “effect upon killing of tumor cells by external beam γ irradiation” value [2] was “no discernible effect”. For the same compound, the “effect upon killing of tumor xenografts by systemic Cytoxan chemotherapy” value [3] was “no discernible effect”, the “time to reversion to normal cell division after wash-out” value ([4]; change of cell culture medium) was at most 48 h and the “cell cycle block (phase)” value ([4]; log-phase human fibroblast cultures) was “in the G1 phase of the cell cycle; also recorded: G1-specific cell cycle block; also recorded: reversible G1 cell cycle block”. The “reversibility of cell cycle block” value ([4]; upon washout or removal of the drug) was “reversible” and the p21 expression (p21 in human fibroblasts) was “induces expression of the cell cycle regulator, p21; also recorded: marked induction of p21 expression”.
